Patent US11510428B2, “Rebaudioside B and derivatives” (SWEET GREEN FIELDS INTERNATIONAL CO., LIMITED, priority 2011, dated 2022)

What was measured:
[1] = General taste and sweetness statements on steviol glycosides, RA, RB and RB salt (background and description); type: in vivo
[2] = Taste comparison between RB and RA by experts (Example 7); type: in vivo, human; settings: 400 ppm aqueous solution
Excerpt: Taste comparison between RB (prepared in Example 1, first part) and RA Purity of RA was 99.0% by HPLC and RB was 99.1% by HPLC.
RB sample: 400 ppm aqueous solution
RA sample: 400 ppm aqueous solution

[3] = cited from earlier work
[4] = Sensory evaluation after adding Reb D to samples of Example 9 (Example 10); type: in vivo, human; settings: total concentration of rebaudiosides 400 ppm

## C=C1C[C@@]23CC[C@H]4[C@@](C)(CCC[C@@]4(C)C(=O)O[C@@H]4O[C@H](CO)[C@@H](O)[C@H](O)[C@H]4O)[C@@H]2CC[C@]1(O[C@@H]1O[C@H](CO)[C@@H](O)[C@H](O[C@@H]2O[C@H](CO)[C@@H](O)[C@H](O)[C@H]2O)[C@H]1O[C@@H]1O[C@H](CO)[C@@H](O)[C@H](O)[C@H]1O)C3 [RA, Rebaudioside A]
[1]; aqueous solution
  Concentration that provides maximum sweetness: About 250 ppm
[1]; in food products
  Concentration above which there is no increased perceived sweetness: about 500 ppm
[2]; 7/10 experts
  Bitterness: strong bitterness profile
[3]; 100% purity RA, e.g. 500 ppm aqueous solution
  Bitterness and aftertaste: appear strongly at higher concentrations
[3]; increased sweetness and decreased bitterness, Phytochemistry 68, 2007
  Taste quality: better than stevioside

## C=C1C[C@@]23CC[C@H]4[C@@](C)(CCC[C@@]4(C)C(=O)O[C@@H]4O[C@H](CO)[C@@H](O)[C@H](O)[C@H]4O[C@@H]4O[C@H](CO)[C@@H](O)[C@H](O)[C@H]4O)[C@@H]2CC[C@]1(O[C@@H]1O[C@H](CO)[C@@H](O)[C@H](O[C@@H]2O[C@H](CO)[C@@H](O)[C@H](O)[C@H]2O)[C@H]1O[C@@H]1O[C@H](CO)[C@@H](O)[C@H](O)[C@H]1O)C3 [Reb D, Rebaudioside D]
[4]
  Sensory taste profile on addition of Reb D: can improve sensory taste profile

## Rebaudioside B [RB]
[1]; compared with other steviol glycosides
  On-set profile: short on-set profile
[2]
  Taste profile: tasted better than RA
[2]; 7/10 experts
  Bitterness: less bitterness than RA
  Sweetness: lesser sweetness than RA
